# Experimental data published in patent US20260209214A1, “LSD1 MODULATORS” (RECURSION PHARMACEUTICALS, INC., priority 2022, published 2026).
# Target: Recombinant human LSD1 (Homo sapiens, UniProt O60341)
# Test: LSD1 inhibition assay (HTRF LSD1 Histone H3K4 mono-demethylation assay, me1->me0)
# Format: biochemical
# Details: 20 nM recombinant human LSD1, 95 nM H3K4(me1) biotinylated peptide, 15 min preincubation, 60 min at 25° C., read-out: LSD1 inhibition IC50 (nM range)
# Method in brief: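 HTRF demethylation (me1->me0) read-out: streptavidin-XL665 and anti-H3K4me0 cryptate added after reaction, ratio measured after 90 min dark. Reaction: 95 nM H3K4me1 biotin-peptide, 20 nM LSD1 (15-min compound pre-incubation), 60 min, 25 °C, buffer pH 8.5 plus FAD and DTT; 4-parameter logistic IC50.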
row,SMILES,IC50 [nM]
1,"N#Cc1ccc(-c2cccc(CN3CCNCC(F)(F)C3)c2Cl)cc1F [Example 338, 2'-chloro-3'-[(6,6-difluoro-1,4-diazepan-1-yl)methyl]-3-fluoro-[1,1'-biphenyl]-4-carbonitrile]",> 1000
2,"N#Cc1ccc(-c2cccc(CN3CCC4(CC3)CNC4)c2Cl)cc1F [Example 339, 2'-chloro-3'-({2,7-diazaspiro[3.5]nonan-7-yl}methyl)-3-fluoro-[1,1'-biphenyl]-4-carbonitrile]",25 to 100
3,"N#Cc1ccc(-c2cccc(CN3CCC4(CNC4)C3)c2Cl)cc1F [Example 341, 2'-chloro-3'-({2,6-diazaspiro[3.4]octan-6-yl}methyl)-3-fluoro-[1,1'-biphenyl]-4-carbonitrile]",100 to 1000
4,"Cc1cc(CNCC2CCCN(C)C2)c(Cl)c(-c2ccc(C#N)c(F)c2)c1 (centres unmarked) [Example 346, 2'-chloro-3-fluoro-5'-methyl-3'-({[(1-methylpiperidin-3-yl)methyl]amino}methyl)-[1,1'-biphenyl]-4-carbonitrile]",100 to 1000
5,"Cc1cc(CN2C[C@@H]3[C@@H](N)[C@@H]3C2)c(Cl)c(-c2ccc(C#N)c(F)c2)c1 [Example 347, 3'-{[(1R,5S,6R)-6-amino-3-azabicyclo[3.1.0]hexan-3-yl]methyl}-2'-chloro-3-fluoro-5'-methyl-[1,1'-biphenyl]-4-carbonitrile]",100 to 1000

# The remaining lines, values ahead:
row,IC50 [nM],SMILES
1,100 to 1000,"C[C@]1(N)CCN(Cc2c(F)ccc(-c3ccc(C#N)c(F)c3)c2Cl)C1 [Example 342, 3'-{[(3S)-3-amino-3-methylpyrrolidin-1-yl]methyl}-2'-chloro-3,4'-difluoro-[1,1'-biphenyl]-4-carbonitrile]"
2,> 1000,"N#Cc1ccc(-c2cc(CN3CC4(CNCCO4)C3)ccc2N2CCCC2)cc1 [Example 343, 5'-({5-oxa-2,8-diazaspiro[3.5]nonan-2-yl}methyl)-2'-(pyrrolidin-1-yl)-[1,1'-biphenyl]-4-carbonitrile]"
3,> 1000,"N#Cc1ccc(-c2cc(CN3CC4(CNCCO4)C3)ccc2N2CCCC2)cc1F [Example 344, 3-fluoro-5'-({5-oxa-2,8-diazaspiro[3.5]nonan-2-yl}methyl)-2'-(pyrrolidin-1-yl)-[1,1'-biphenyl]-4-carbonitrile]"
4,> 1000,Cc1cc(CN2C[C@@H]3C[C@H]2CN3C2COC2)c(Cl)c(-c2ccc(C#N)c(F)c2)c1 [Example 345]
5,100 to 1000,"Cc1cc(CNCC2CCCNC2)c(Cl)c(-c2ccc(C#N)c(F)c2)c1 (centres unmarked) [Example 348, 2'-chloro-3-fluoro-5'-methyl-3'-({[(piperidin-3-yl)methyl]amino}methyl)-[1,1'-biphenyl]-4-carbonitrile]"
6,100 to 1000,"C[C@@]1(N)CCN(Cc2cccc(-c3ccc(C#N)c(F)c3)c2C2CC2)C1 [Example 349, 3'-{[(3R)-3-amino-3-methylpyrrolidin-1-yl]methyl}-2'-cyclopropyl-3-fluoro-[1,1'-biphenyl]-4-carbonitrile]"
